Source: ChEMBL document CHEMBL4138146, “A Schmidt rearrangement-mediated synthesis of novel tetrahydro-benzo[1,4]diazepin-5-ones as potential anticancer and antiprotozoal agents” (Eur J Med Chem, 2017)

Legend:
Type in all cases: functional
[1] = tested on: NCI-H226; assay: Growth inhibition of human NCI-H226 cells assessed as cell growth at 10^-6 M incubated for 48 hrs by sulforhodamine B assay relative to control; conditions: NCI-H226, 48 h, read-out: Activity
[2] = tested on: SF-295; assay: Growth inhibition of human SF295 cells assessed as cell growth at 10^-8 M incubated for 48 hrs by sulforhodamine B assay relative to control; conditions: SF-295, 48 h, read-out: Activity
[3] = tested on: MCF7; assay: Growth inhibition of human MCF7 cells assessed as cell growth at 10^-8 M incubated for 48 hrs by sulforhodamine B assay relative to control; conditions: MCF7, 48 h, read-out: Activity
[4] = tested on: A549; assay: Growth inhibition of human A549/ATCC cells assessed as cell growth at 10^-6 M incubated for 48 hrs by sulforhodamine B assay relative to control; conditions: A549, 48 h, read-out: Activity
[5] = tested on: HOP-92; assay: Growth inhibition of human HOP92 cells assessed as cell growth at 10^-8 M incubated for 48 hrs by sulforhodamine B assay relative to control; conditions: HOP-92, 48 h, read-out: Activity
[6] = tested on: UO-31; assay: Growth inhibition of human UO31 cells assessed as cell growth at 10^-6 M incubated for 48 hrs by sulforhodamine B assay relative to control; conditions: UO-31, 48 h, read-out: Activity
[7] = tested on: MOLT-4; assay: Growth inhibition of human MOLT4 cells assessed as cell growth at 10^-8 M incubated for 48 hrs by sulforhodamine B assay relative to control; conditions: MOLT-4, 48 h, read-out: Activity
[8] = tested on: DU-145; assay: Growth inhibition of human DU145 cells assessed as cell growth at 10^-6 M incubated for 48 hrs by sulforhodamine B assay relative to control; conditions: DU-145, 48 h, read-out: Activity
[9] = tested on: NCI-H226; assay: Growth inhibition of human NCI-H226 cells assessed as cell growth at 10^-7 M incubated for 48 hrs by sulforhodamine B assay relative to control; conditions: NCI-H226, 48 h, read-out: Activity
[10] = tested on: NCI-H460; assay: Growth inhibition of human NCI-H460 cells assessed as cell growth at 10^-5 M incubated for 48 hrs by sulforhodamine B assay relative to control; conditions: NCI-H460, 48 h, read-out: Activity
[11] = tested on: A498; assay: Growth inhibition of human A498 cells assessed as cell growth at 10^-8 M incubated for 48 hrs by sulforhodamine B assay relative to control; conditions: A498, 48 h, read-out: Activity
[12] = tested on: EKVX; assay: Growth inhibition of human EKVX cells assessed as cell growth at 10^-5 M incubated for 48 hrs by sulforhodamine B assay relative to control; conditions: read-out: Activity
[13] = tested on: A498; assay: Growth inhibition of human A498 cells assessed as cell growth at 10^-4 M incubated for 48 hrs by sulforhodamine B assay relative to control; conditions: A498, 48 h, read-out: Activity
[14] = tested on: SF-295; assay: Growth inhibition of human SF295 cells assessed as cell growth at 10^-4 M incubated for 48 hrs by sulforhodamine B assay relative to control; conditions: SF-295, 48 h, read-out: Activity
[15] = tested on: CAKI-1; assay: Growth inhibition of human Caki1 cells assessed as cell growth at 10^-7 M incubated for 48 hrs by sulforhodamine B assay relative to control; conditions: CAKI-1, 48 h, read-out: Activity
[16] = tested on: Malme-3M; assay: Growth inhibition of human MALME-3M cells assessed as cell growth at 10^-4 M incubated for 48 hrs by sulforhodamine B assay relative to control; conditions: read-out: Activity
[17] = tested on: UACC-257; assay: Growth inhibition of human UACC257 cells assessed as cell growth at 10^-7 M incubated for 48 hrs by sulforhodamine B assay relative to control; conditions: UACC-257, 48 h, read-out: Activity
[18] = tested on: NCI/ADR-RES; assay: Growth inhibition of human NCI/ADR-RES cells assessed as cell growth at 10^-6 M incubated for 48 hrs by sulforhodamine B assay relative to control; conditions: read-out: Activity
[19] = tested on: SK-MEL-28; assay: Growth inhibition of human SK-MEL-28 cells assessed as cell growth at 10^-8 M incubated for 48 hrs by sulforhodamine B assay relative to control; conditions: SK-MEL-28, 48 h, read-out: Activity
[20] = tested on: UO-31; assay: Growth inhibition of human UO31 cells assessed as cell growth at 10^-7 M incubated for 48 hrs by sulforhodamine B assay relative to control; conditions: UO-31, 48 h, read-out: Activity
[21] = tested on: RXF 393; assay: Growth inhibition of human RXF393 cells assessed as cell growth at 10^-4 M incubated for 48 hrs by sulforhodamine B assay relative to control; conditions: RXF 393, 48 h, read-out: Activity
[22] = tested on: HT-29; assay: Growth inhibition of human HT-29 cells assessed as cell growth at 10^-8 M incubated for 48 hrs by sulforhodamine B assay relative to control; conditions: HT-29, 48 h, read-out: Activity
[23] = tested on: KM12; assay: Growth inhibition of human KM12 cells assessed as cell growth at 10^-5 M incubated for 48 hrs by sulforhodamine B assay relative to control; conditions: KM12, 48 h, read-out: Activity
[24] = tested on: NCI-H23; assay: Growth inhibition of human NCI-H23 cells assessed as cell growth at 10^-7 M incubated for 48 hrs by sulforhodamine B assay relative to control; conditions: NCI-H23, 48 h, read-out: Activity
[25] = tested on: T47D; assay: Growth inhibition of human T47D cells assessed as cell growth at 10^-8 M incubated for 48 hrs by sulforhodamine B assay relative to control; conditions: read-out: Activity
[26] = tested on: MDA-MB-468; assay: Growth inhibition of human MDA-MB-468 cells assessed as cell growth at 10^-6 M incubated for 48 hrs by sulforhodamine B assay relative to control; conditions: MDA-MB-468, 48 h, read-out: Activity
[27] = tested on: EKVX; assay: Growth inhibition of human EKVX cells assessed as cell growth at 10^-6 M incubated for 48 hrs by sulforhodamine B assay relative to control; conditions: read-out: Activity
[28] = tested on: HOP-92; assay: Growth inhibition of human HOP92 cells assessed as cell growth at 10^-6 M incubated for 48 hrs by sulforhodamine B assay relative to control; conditions: HOP-92, 48 h, read-out: Activity
[29] = tested on: COLO 205; assay: Growth inhibition of human COLO205 cells assessed as cell growth at 10^-7 M incubated for 48 hrs by sulforhodamine B assay relative to control; conditions: COLO 205, 48 h, read-out: Activity
[30] = tested on: DU-145; assay: Growth inhibition of human DU145 cells assessed as cell growth at 10^-5 M incubated for 48 hrs by sulforhodamine B assay relative to control; conditions: DU-145, 48 h, read-out: Activity
[31] = tested on: K562; assay: Growth inhibition of human K562 cells assessed as cell growth at 10^-7 M incubated for 48 hrs by sulforhodamine B assay relative to control; conditions: K562, 48 h, read-out: Activity
[32] = tested on: OVCAR-3; assay: Growth inhibition of human OVCAR3 cells assessed as cell growth at 10^-7 M incubated for 48 hrs by sulforhodamine B assay relative to control; conditions: OVCAR-3, 48 h, read-out: Activity
[33] = tested on: MCF7; assay: Growth inhibition of human MCF7 cells assessed as cell growth at 10^-6 M incubated for 48 hrs by sulforhodamine B assay relative to control; conditions: MCF7, 48 h, read-out: Activity
[34] = tested on: SNB-75; assay: Growth inhibition of human SNB75 cells assessed as cell growth at 10^-4 M incubated for 48 hrs by sulforhodamine B assay relative to control; conditions: SNB-75, 48 h, read-out: Activity

**Q.** For `CCCCOc1nc2ccccc2cc1C1CNC(=O)c2ccccc2N1` (centres undefined), which growth at 1 µM [1] is on record?
**A.** 92%

**Q.** What about the growth at 0.01 µM [2] of the same compound?
**A.** 84%

**Q.** And the growth at 0.01 µM [3]?
**A.** 88%

**Q.** And the growth at 1 µM [4]?
**A.** 96%

**Q.** And the growth at 0.01 µM [5]?
**A.** 76%

**Q.** And the growth at 1 µM [6]?
**A.** 61%

**Q.** And the growth at 0.01 µM [7]?
**A.** 70%

**Q.** And the growth at 1 µM [8]?
**A.** 95%

**Q.** What about the growth at 0.1 µM [9] of the same compound?
**A.** 79%

**Q.** What about the growth at 10 µM [10] of the same compound?
**A.** 5%

**Q.** And the growth at 0.01 µM [11]?
**A.** 82%

**Q.** And the growth at 10 µM [12]?
**A.** 31%

**Q.** What about the growth at 100 µM [13] of the same compound?
**A.** -38%

**Q.** And the growth at 100 µM [14]?
**A.** -69%

**Q.** And the growth at 0.1 µM [15]?
**A.** 86%

**Q.** What about the growth at 100 µM [16] of the same compound?
**A.** -53%

**Q.** And the growth at 0.1 µM [17]?
**A.** 92%

**Q.** And the growth at 1 µM [18]?
**A.** 70%

**Q.** What about the growth at 0.01 µM [19] of the same compound?
**A.** 103%

**Q.** And the growth at 0.1 µM [20]?
**A.** 86%

**Q.** What about the growth at 100 µM [21] of the same compound?
**A.** -58%

**Q.** And the growth at 0.01 µM [22]?
**A.** 94%

**Q.** What about the growth at 10 µM [23] of the same compound?
**A.** 17%

**Q.** What about the growth at 0.1 µM [24] of the same compound?
**A.** 95%

**Q.** What about the growth at 0.01 µM [25] of the same compound?
**A.** 86%

**Q.** And the growth at 1 µM [26]?
**A.** 66%

**Q.** And the growth at 1 µM [27]?
**A.** 89%

**Q.** What about the growth at 1 µM [28] of the same compound?
**A.** 62%

**Q.** What about the growth at 0.1 µM [29] of the same compound?
**A.** 95%

**Q.** What about the growth at 10 µM [30] of the same compound?
**A.** 5%

**Q.** And the growth at 0.1 µM [31]?
**A.** 95%

**Q.** And the growth at 0.1 µM [32]?
**A.** 98%

**Q.** What about the growth at 1 µM [33] of the same compound?
**A.** 62%

**Q.** And the growth at 100 µM [34]?
**A.** -79%
